Laboratory results: ChEMBL document CHEMBL1148802, “Discovery and synthesis of HIV integrase inhibitors: development of potent and orally bioavailable N-methyl pyrimidones” (J Med Chem, 2007)

Legend:
[1] = target: Human immunodeficiency virus type 1 integrase (Human immunodeficiency virus 1, UniProt Q7ZJM1); assay: Inhibition of HIV integrase activity by HIV strand transfer assay
[2] = tested on: Human immunodeficiency virus 1; assay: Antiviral activity against HIV13b in MT4 cells assessed as decrease in HIV1 p24 core antigen in presence of fetal bovine serum; assay type: functional, 3b; conditions: for IC95: Human immunodeficiency virus 1, 3b, MT4, read-out: CIC95
[3] = tested on: Human immunodeficiency virus 1; assay: Antiviral activity against HIV1 3b in MT4 cells assessed as decrease in […] p24 core antigen in presence of normal human serum; assay type: functional; conditions: for IC95: Human immunodeficiency virus 1, 3b, MT4, read-out: CIC95

| SMILES | IC50 [1] [nM] | IC95 [2] [nM] | IC95 [3] [nM] | CIC95 [2] [µM] | CIC95 [3] [µM] |
| --- | --- | --- | --- | --- | --- |
| CN1CCS(=O)(=O)CC1c1nc(C(=O)NCc2ccc(F)cc2)c(O)c(=O)n1C (stereo not drawn) | 140 | > 1000 | > 1000 | – | – |
| CN1CCOCC1c1nc(C(=O)NCc2ccc(F)cc2)c(O)c(=O)n1C.O=C(O)C(F)(F)F (racemic) | – | – | – | 65 | 100 |
| CCN1CCN(C)C(c2nc(C(=O)NCc3ccc(F)cc3)c(O)c(=O)n2C)C1 (stereo not drawn) | 250 | 250 | 250 | – | – |
| CC(=O)N1CCN(C)CC1c1nc(C(=O)NCc2ccc(F)cc2)c(O)c(=O)n1C (stereo not drawn) | 4000 | > 1000 | > 1000 | – | – |
| CN1CCOCC1c1nc(C(=O)NCCc2ccccc2)c(O)c(=O)n1C (stereo not drawn) | 71 | > 8000 | > 8000 | – | – |
| C[C@@H]1C[C@@H](c2nc(C(=O)NCc3ccc(F)cc3)c(O)c(=O)n2C)N(C)C1 | 190 | > 1000 | > 1000 | – | – |
| CC1CCC(c2nc(C(=O)NCc3ccc(F)cc3)c(O)c(=O)n2C)N1C (stereo not drawn) | 690 | > 1000 | > 1000 | – | – |
| CC(=O)N[C@H]1C[C@@H](c2nc(C(=O)NCc3ccc(F)cc3)c(O)c(=O)n2C)N(C)C1 | 61 | > 1000 | > 1000 | – | – |
| CCO[C@@H]1C[C@@H](c2nc(C(=O)NCc3ccc(F)cc3)c(O)c(=O)n2C)N(C)C1 | 200 | 170 | 210 | – | – |
| CN1CCNCC1c1nc(C(=O)NCc2ccc(F)cc2)c(O)c(=O)n1C (stereo not drawn) | 200 | 750 | 500 | – | – |
| Cn1c(C2COCCN2)nc(C(=O)NCc2ccc(F)cc2)c(O)c1=O (stereo not drawn) | 50 | > 1000 | > 1000 | – | – |
| CN(Cc1ccccc1)C(=O)c1nc(C2COCCN2C)n(C)c(=O)c1O (stereo not drawn) | > 5000 | > 8000 | > 8000 | – | – |
| CC(C)N1CCN(C)C(c2nc(C(=O)NCc3ccc(F)cc3)c(O)c(=O)n2C)C1 (stereo not drawn) | 130 | 500 | 500 | – | – |
| CN1CCOCC1c1nc(C(=O)NCc2cccc(Cl)c2)c(O)c(=O)n1C (stereo not drawn) | 62 | 16 | 63 | – | – |

Second part, led by results:

| IC50 [1] [nM] | SMILES | IC95 [2] [nM] | IC95 [3] [nM] | CIC95 [2] [µM] | CIC95 [3] [µM] |
| --- | --- | --- | --- | --- | --- |
| 20 | Cn1c(C2COCCN2C(=O)OC(C)(C)C)nc(C(=O)NCc2ccc(F)cc2)c(O)c1=O (stereo not drawn) | > 1000 | > 1000 | – | – |
| 7 | CN1CCN(S(=O)(=O)c2ccccc2)CC1c1nc(C(=O)NCc2ccc(F)cc2)c(O)c(=O)n1C (stereo not drawn) | 30 | 500 | – | – |
| 50 | CN1CC(c2nc(C(=O)NCc3ccc(F)cc3)c(O)c(=O)n2C)N(C)CC1=O (stereo not drawn) | 1250 | 1250 | – | – |
| 28 | CN1CCOCC1c1nc(C(=O)NCc2ccc(F)c(Cl)c2)c(O)c(=O)n1C (stereo not drawn) | < 8 | 31 | – | – |
| 44 | CN1CCOCC1c1nc(C(=O)NCc2ccc(F)c(Br)c2)c(O)c(=O)n1C (stereo not drawn) | 31 | 125 | – | – |
| 33 | CCN1CCOCC1c1nc(C(=O)NCc2ccc(F)cc2)c(O)c(=O)n1C (stereo not drawn) | 50 | 90 | – | – |
| 41 | CN1CCN(C(=O)OC(C)(C)C)CC1c1nc(C(=O)NCc2ccc(F)cc2)c(O)c(=O)n1C (stereo not drawn) | 130 | 810 | – | – |
| 21 | CN1CC[C@@H](O)C[C@H]1c1nc(C(=O)NCc2ccc(F)cc2)c(O)c(=O)n1C | 500 | 500 | – | – |
| 12 | CN1CCN(C(=O)c2ccccc2)CC1c1nc(C(=O)NCc2ccc(F)cc2)c(O)c(=O)n1C (stereo not drawn) | – | 250 | – | – |
| 19 | CN1CCOCC1c1nc(C(=O)NCc2cccc(Br)c2)c(O)c(=O)n1C (stereo not drawn) | 16 | 63 | – | – |
| 30 | CN1C[C@@H](NS(C)(=O)=O)C[C@H]1c1nc(C(=O)NCc2ccc(F)cc2)c(O)c(=O)n1C | 500 | 500 | – | – |
| 15 | CC(=O)N1CCOCC1c1nc(C(=O)NCc2ccc(F)cc2)c(O)c(=O)n1C (stereo not drawn) | > 1000 | > 1000 | – | – |
| 30 | CN1CCOCC1c1nc(O)c(O)c(C(=O)NCc2ccc(F)cc2)n1 (stereo not drawn) | – | 230 | – | – |
